Reference: patent US20200054058A1, “Sweetness and Taste Improvement of Steviol Glycoside and Mogroside Sweeteners with Dihydrochalcones” (The Coca-Cola Company, priority 2017, published 2020)
Like-named read-outs stand apart in the source and are kept apart here.

Key:
[1] = tested on: panelist; conditions: Isomer of Siamenoside I in acidic water (100 ppm, Table 4); one panelist
Source text: The panelist was asked to evaluate the sweetness of the samples against the 3%, 5%, and 8% sucrose solutions and describe the taste profiles.

[2] = tested on: panelists; conditions: 250 ppm 1,6-α-isomer of Siamenoside I in acidic water; one panelist; slightly less
[3] = tested on: panelists; assay: Sensory tasting of mock beverages with Reb-J, Reb-N, Reb-O, Reb-M with and without CC-00800 against sucrose references (Example 6); assay type: in vivo, human; conditions: for enhancement of overall sweetness by hesperitin dihydrochalcone: 10 ppm hesperitin dihydrochalcone added to the steviol glycoside beverage, all panelists; for sweetness and bitterness rank among Reb-J, Reb-N, Reb-O, Reb-M: mock beverages without hesperitin dihydrochalcone
Protocol: Steviol glycosides, namely Reb-J, Reb-N, Reb-M, Reb-O with 95% purity were purchased from commercial sources.
A 6% stock solution of CC-00800 (hesperitin dihydrochalcone, “HDC”) was made in propylene glycol (PG) food grade and used in subsequent experiments.
Acidified mock beverages (100 grams) were made using the following ingredients (in grams) in order:
All ingredients were dissolved in carbon-filtered water and the resulting beverage was filled in 300 ml glass bottles and immediately refrigerated (4° C.). Beverages were bench tasted when cold.
Four experienced panelists bench tasted the beverages blindly. Each panelist was given warm bottled water and unsalted crackers to eat and rinse the palate between samples. A maximum of 3 samples was tasted at each session to avoid fatigue.
The first session consisted of tasting beverages without hesperitin dihydrochalcone.
The second session consisted of tasting the beverages with hesperitin dihydrochalcone added (10 ppm). All panelists agreed that hesperitin dihydrochalcone enhanced the overall sweetness for about 1 Brix for Reb-J, Reb-O, and Reb-N, while Reb-M was enhanced with about 2.5 Brix.

[4] = tested on: panelists; assay: Taste evaluation of NHDC with rebaudioside M in acidic water against sucrose solutions (Example 2); assay type: in vivo, human; conditions: both panelists
Source text: First, the panelists assessed the sweetness of 5 ppm of NHDC in acidic water against 1.5% sucrose solution in acidic water.
Next, panelists compared the sweetness profile of (i) a sample containing 150 ppm rebaudioside M and (ii) a sample containing 5 ppm NHDC and 150 rebaudioside M to the 6%, 8%, and 10% sucrose solutions.

[5] = tested on: panelist; assay: Taste evaluation of phloretin with rebaudioside M in acidic water against sucrose solutions (Example 1); assay type: in vivo, human; conditions: one panelist
Source text: First, the panelist assessed the sweetness of 40 ppm of phloretin in acidic water against a 1.5% sucrose solution in acidic water. 40 ppm of phloretin was reported to have a sweetness less than the sweetness of the 1.5% sucrose solution.
Next, the panelist compared the sweetness profile of (i) the sample containing 150 ppm rebaudioside M in acidic water and (ii) the sample containing 40 ppm phloretin and 150 ppm rebaudioside M in acidic water to the 5%, 7%, 8%, 9%, and 10% sucrose solutions.

[6] = tested on: panelists; assay: Taste evaluation of hesperetin dihydrochalcone with rebaudioside M in acidic water against sucrose solutions (Example 3); assay type: in vivo, human; conditions: 150 ppm rebaudioside M in acidic water; both panelists; slightly less sweet
Source text: Panelists compared the sweetness profile of (i) a sample containing 150 ppm rebaudioside M and (ii) a sample containing 40 ppm hesperetin dihydrochalcone and 150 ppm rebaudioside M to the 4%, 6%, 8%, and 10% sucrose solutions.

[7] = tested on: panelists; assay: Bench tasting of acidified mock beverages, CC-00800 + Reb-M (Example 5); assay type: in vivo, human; conditions: 472 ppm Reb-M, control mock beverage (Bev. #7); five panelists
Protocol: Rebaudioside M was acquired from Pure Circle (86% Reb-M, 9% Reb-D, 0.8% Reb-A, plus other steviol glycosides in minor amount).
A 6% stock solution of Hesperetin Dihydrochalcone (CC-00800) was made in propylene glycol (PG) food grade and used in subsequent experiments.
Acidified mock beverages (300 grams) were made using the following ingredients (in grams) in order:
All ingredients were dissolved in carbon-filtered water and the resulting beverage was filled in 300 ml glass bottles and immediately refrigerated (4° C.). Beverages were bench tasted next morning.
Five experienced panelists bench tasted the beverages blindly. Each panelist was given warm bottled water and unsalted crackers to eat and rinse the palate between samples. A maximum of 3 samples was tasted at each session to avoid fatigue.

[8] = tested on: panelists; assay type: in vivo, human; conditions: 250 ppm Rebaudioside M in acidic water; for sweetness in sucrose equivalents: slightly less sweet
[9] = tested on: panelists; assay: Taste evaluation of hesperetin dihydrochalcone with siamenoside I in acidic water against sucrose solutions (Example 4); assay type: in vivo, human; conditions: 150 ppm siamenoside I in acidic water; both panelists; slightly less sweet
Source text: Panelists compared the sweetness profile of (i) a sample containing 150 ppm siamenoside I and (ii) a sample containing 40 ppm hesperetin dihydrochalcone and 150 ppm siamenoside I to the 4%, 6%, 8%, and 10% sucrose solutions.

[10] = tested on: panelists; conditions: 250 ppm Siamenoside I in acidic water; one panelist
[11] = 10 ppm hesperitin dihydrochalcone added
[12] = 150 ppm rebaudioside M in acidic water

Compound: C[C@H](CC[C@@H](O[C@@H]1O[C@H](CO[C@H]2O[C@H](CO)[C@@H](O)[C@H](O)[C@H]2O)[C@@H](O)[C@H](O)[C@H]1O[C@@H]1O[C@H](CO)[C@@H](O)[C@H](O)[C@H]1O)C(C)(C)O)[C@H]1CC[C@@]2(C)[C@@H]3CC=C4[C@@H](CC[C@H](O[C@@H]5O[C@H](CO)[C@@H](O)[C@H](O)[C@H]5O)C4(C)C)[C@]3(C)[C@H](O)C[C@]12C [1,6-α-isomer of Siamenoside I, mogro-3-O-[β-D-glucopyranoside]-24-O-{[β-D-glucopyranosyl-(1→2)]-[α-D-glucopyranosyl-(1→6)]-β-O-D-glucopyranoside}]
- sweetness against sucrose solutions [1]: ~4 % sucrose
- sweetness in sucrose equivalents [2]: less than 7 % sucrose

Compound: COc1ccc(CCC(=O)c2c(O)cc(O)cc2O)cc1O [Hesperitin dihydrochalcone, 3-(3-Hydroxy-4-methoxyphenyl)-1-(2,4,6-trihydroxyphenyl)-1-propanone]
- effect on bitterness and other off-notes of steviol glycoside beverages [3, 11]: reduced significantly
- effect on mouth feel of steviol glycoside beverages [3, 11]: improved

Compound: COc1ccc(CCC(=O)c2c(O)cc(O[C@@H]3O[C@H](CO)[C@@H](O)[C@H](O)[C@H]3O[C@@H]3O[C@@H](C)[C@H](O)[C@@H](O)[C@H]3O)cc2O)cc1O [NHDC, 1-[4-[[(2S,3R,4S,5S,6R)-4,5-Dihydroxy-6-(hydroxymethyl)-3-[[(2S,3R,4R,5R,6S)-3,4,5-trihydroxy-6-methyl-2-tetrahydropyranyl]oxy]-2-tetrahydropyranyl]oxy]-2,6-dihydroxyphenyl]-3-(3-hydroxy-4-methoxyphenyl)propan-1-one]
- sweetness against sucrose solution ([4]; 5 ppm NHDC in acidic water): < 1.5 % sucrose

Compound: C=C1C[C@@]23CC[C@H]4[C@@](C)(CCC[C@@]4(C)C(=O)O[C@@H]4O[C@H](CO)[C@@H](O)[C@H](O)[C@H]4O[C@@H]4O[C@@H](C)[C@H](O)[C@@H](O)[C@H]4O)[C@@H]2CC[C@]1(O[C@@H]1O[C@H](CO)[C@@H](O)[C@H](O[C@@H]2O[C@H](CO)[C@@H](O)[C@H](O)[C@H]2O)[C@H]1O[C@@H]1O[C@H](CO)[C@@H](O)[C@H](O)[C@H]1O)C3 [Reb-J, rebaudioside J]
- enhancement of overall sweetness by hesperitin dihydrochalcone [3]: about 1 Brix
- sweetness and bitterness rank among Reb-J, Reb-N, Reb-O, Reb-M [3]: least sweet and most bitter

Compound: C=C1C[C@@]23CC[C@H]4[C@@](C)(CCC[C@@]4(C)C(=O)O[C@@H]4O[C@H](CO)[C@@H](O)[C@H](O[C@@H]5O[C@H](CO)[C@@H](O)[C@H](O)[C@H]5O)[C@H]4O[C@@H]4O[C@@H](C)[C@H](O)[C@@H](O)[C@H]4O)[C@@H]2CC[C@]1(O[C@@H]1O[C@H](CO)[C@@H](O)[C@H](O[C@@H]2O[C@H](CO)[C@@H](O)[C@H](O)[C@H]2O)[C@H]1O[C@@H]1O[C@H](CO)[C@@H](O)[C@H](O)[C@H]1O)C3 [Reb-N, rebaudioside N]
- enhancement of overall sweetness by hesperitin dihydrochalcone [3]: about 1 Brix

Compound: C=C1C[C@@]23CC[C@H]4[C@@](C)(CCC[C@@]4(C)C(=O)O[C@@H]4O[C@H](CO)[C@@H](O)[C@H](O[C@@H]5O[C@H](CO)[C@@H](O)[C@H](O)[C@H]5O)[C@H]4O[C@@H]4O[C@@H](C)[C@H](O)[C@@H](O[C@@H]5O[C@H](CO)[C@@H](O)[C@H](O)[C@H]5O)[C@H]4O)[C@@H]2CC[C@]1(O[C@@H]1O[C@H](CO)[C@@H](O)[C@H](O[C@@H]2O[C@H](CO)[C@@H](O)[C@H](O)[C@H]2O)[C@H]1O[C@@H]1O[C@H](CO)[C@@H](O)[C@H](O)[C@H]1O)C3 [Reb-O, rebaudioside O]
- enhancement of overall sweetness by hesperitin dihydrochalcone [3]: about 1 Brix

Compound: O=C(CCc1ccc(O)cc1)c1c(O)cc(O)cc1O [phloretin, 3-(4-hydroxyphenyl)-1-(2,4,6-trihydroxyphenyl)propan-1-one]
- sweetness against sucrose solution ([5]; 40 ppm phloretin in acidic water): < 1.5 % sucrose

Compound: C=C1C[C@@]23CC[C@H]4[C@@](C)(CCC[C@@]4(C)C(=O)O[C@@H]4O[C@H](CO)[C@@H](O)[C@H](O[C@@H]5O[C@H](CO)[C@@H](O)[C@H](O)[C@H]5O)[C@H]4O[C@@H]4O[C@H](CO)[C@@H](O)[C@H](O)[C@H]4O)[C@@H]2CC[C@]1(O[C@@H]1O[C@H](CO)[C@@H](O)[C@H](O[C@@H]2O[C@H](CO)[C@@H](O)[C@H](O)[C@H]2O)[C@H]1O[C@@H]1O[C@H](CO)[C@@H](O)[C@H](O)[C@H]1O)C3 [rebaudioside M]
- sweetness against sucrose solutions [5, 12]: 6 % sucrose
- sweetness against sucrose solutions [4, 12]: 6 % sucrose
- sweetness against sucrose solutions [6]: < 6 % sucrose
- aftertaste of control [7]: sweet lingering, licorice and bitter aftertaste observed in the control
- enhancement of overall sweetness by hesperitin dihydrochalcone [3]: about 2.5 Brix
- sweetness and bitterness rank among Reb-J, Reb-N, Reb-O, Reb-M [3]: sweetest
- sweetness and mouthfeel compared with sample also containing Hesperetin dihydrochalcone-4′-beta-D-glucoside ([8]; both panelists): less sweet and less mouthfeel
- sweetness in sucrose equivalents ([8]; one panelist): < 7 % sucrose
- sweetness in sucrose equivalents ([8]; the other panelist): < 8 % sucrose

Compound: C[C@H](CC[C@@H](O[C@@H]1O[C@H](CO[C@@H]2O[C@H](CO)[C@@H](O)[C@H](O)[C@H]2O)[C@@H](O)[C@H](O)[C@H]1O[C@@H]1O[C@H](CO)[C@@H](O)[C@H](O)[C@H]1O)C(C)(C)O)[C@H]1CC[C@@]2(C)[C@@H]3CC=C4[C@@H](CC[C@H](O[C@@H]5O[C@H](CO)[C@@H](O)[C@H](O)[C@H]5O)C4(C)C)[C@]3(C)[C@H](O)C[C@]12C [siamenoside I]
- sweetness against sucrose solutions [9]: < 6 % sucrose
- sweetness in sucrose equivalents [10]: ~6 % sucrose
